This note sets out measurements from US20240083861A1, “HSD17B13 INHIBITORS AND USES THEREOF” (FL2022-001, Inc., priority 2020, published 2024).

Where only a bound is given, the exact number is not on record here.

For this assay, the target named is T1, Recombinant human HSD17B13 enzyme (Homo sapiens, UniProt Q7Z5P4).
T1 sequence (Q7Z5P4 20-300): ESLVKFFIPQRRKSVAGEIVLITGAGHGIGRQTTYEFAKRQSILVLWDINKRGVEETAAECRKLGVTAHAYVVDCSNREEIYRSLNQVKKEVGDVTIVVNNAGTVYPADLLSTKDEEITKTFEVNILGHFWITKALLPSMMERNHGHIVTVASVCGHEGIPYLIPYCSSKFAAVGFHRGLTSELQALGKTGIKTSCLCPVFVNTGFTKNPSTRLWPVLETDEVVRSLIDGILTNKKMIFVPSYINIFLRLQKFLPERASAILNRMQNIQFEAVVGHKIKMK
The assay can be described thus: HSD17b13 NAD(P)H-Glo biochemical assay. As to conditions: 50 uM estradiol, 1 mM NAD+, NAD(P)H-Glo luminescence; read-out: HSD17β13 IC50. The essentials: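 Luminescent NAD(P)H-Glo read-out, taken after 1 hour at RT, measured cofactor reduction. Substrate and cofactor were estradiol at 50 uM and NAD+ at 1 mM final, reacted with the recombinant human enzyme for 3 hours at 37° C in 20 mM Tris pH7.4, 0.002% Tween-20, 0.02% BSA. Compound was pre-incubated with enzyme for 20 minutes at RT.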

In the case of `CN1CCN(c2cc3c(cn2)c(-c2cc(C(F)(F)F)c(F)c(O)c2F)nn3C)C(=O)C1` [Compound 9.102, 1-(3-(2,4-Difluoro-3-hydroxy-5-(trifluoromethyl)phenyl)-1-methyl-1H-pyrazolo[4,3-c]pyridin-6-yl)-4-methylpiperazin-2-one], the IC50 (in general, the point on the concentration scale where inhibition reaches its midpoint) lay in the range of 100 to 1000 nM.
In the case of `CN(c1nc2c(cc1F)c(-c1cc(C(F)(F)F)c(F)c(O)c1F)nn2C)C1CCOCC1` [Compound 9.103, 2,6-Difluoro-3-(5-fluoro-1-methyl-6-(methyl(tetrahydro-2H-pyran-4-yl)amino)-1H-pyrazolo[3,4-b]pyridin-3-yl)-5-(trifluoromethyl)phenol] it was under 100 nM; in that of `Cn1nc(-c2cc(C(F)(F)F)c(F)c(O)c2F)c2cc(F)c(N3CCN(S(C)(=O)=O)CC34CC4)nc21` [Compound 9.104, 2,6-Difluoro-3-(5-fluoro-1-methyl-6-(7-(methylsulfonyl)-4,7-diazaspiro[2.5]octan-4-yl)-1H-pyrazolo[3,4-b]pyridin-3-yl)-5-(trifluoromethyl)phenol], under 100 nM; in that of `Cn1nc(-c2cc(C(F)(F)F)c(F)c(O)c2F)c2cc(F)c(N3CCCOCC34CC4)nc21` [Compound 9.105, 2,6-Difluoro-3-(5-fluoro-1-methyl-6-(8-oxa-4-azaspiro[2.6]nonan-4-yl)-1H-pyrazolo[3,4-b]pyridin-3-yl)-5-(trifluoromethyl)phenol], under 100 nM.
Turning to `COC1CCN(c2nc3c(cc2F)c(-c2cc(C(F)(F)F)c(F)c(O)c2F)nn3C)CC1` [Compound 9.106, 2,6-Difluoro-3-(5-fluoro-6-(4-methoxypiperidin-1-yl)-1-methyl-1H-pyrazolo[3,4-b]pyridin-3-yl)-5-(trifluoromethyl)phenol], the IC50 is under 100 nM.
In the case of `Cn1nc(-c2cc(C(F)(F)F)c(F)c(O)c2F)c2cc(F)c(N3CCOCC34CCC4)nc21` [Compound 9.107, 2,6-Difluoro-3-(5-fluoro-1-methyl-6-(8-oxa-5-azaspiro[3.5]nonan-5-yl)-1H-pyrazolo[3,4-b]pyridin-3-yl)-5-(trifluoromethyl)phenol] it was under 100 nM.
With `Cn1nc(-c2cc(C(F)(F)F)c(F)c(O)c2F)c2cc(F)c(N3CCOC4(CCC4)C3)nc21` [Compound 9.108, 2,6-Difluoro-3-(5-fluoro-1-methyl-6-(5-oxa-8-azaspiro[3.5]nonan-8-yl)-1H-pyrazolo[3,4-b]pyridin-3-yl)-5-(trifluoromethyl)phenol], the IC50 was under 100 nM.
On to `Cn1nc(-c2ccc(F)c(O)c2F)c2cnc(N3CCOC4(CCC4)C3)cc21` [Compound 9.109, 2,6-Difluoro-3-(1-methyl-6-(5-oxa-8-azaspiro[3.5]nonan-8-yl)-1H-pyrazolo[4,3-c]pyridin-3-yl)phenol], for which the half-maximal inhibitory concentration (IC50) was in the range of 100 to 1000 nM.
For `Cn1nc(-c2cc(C(F)(F)F)c(F)c(O)c2F)c2cnc(N3CCOCC34CCC4)nc21` [Compound 9.110, 2,6-Difluoro-3-(1-methyl-6-(8-oxa-5-azaspiro[3.5]nonan-5-yl)-1H-pyrazolo[3,4-d]pyrimidin-3-yl)-5-(trifluoromethyl)phenol], the IC50 is under 100 nM.
For `Cn1nc(-c2cc(C(F)(F)F)c(F)c(O)c2F)c2cnc(N3CCNCC34CC4)cc21` [Compound 9.111, 2,6-Difluoro-3-(1-methyl-6-(4,7-diazaspiro[2.5]octan-4-yl)-1H-pyrazolo[4,3-c]pyridin-3-yl)-5-(trifluoromethyl)phenol], the IC50 is under 100 nM.
As for `CN1CCN(c2cc3c(cn2)c(-c2cc(C(F)(F)F)c(F)c(O)c2F)nn3C)C2(CC2)C1=O` [Compound 9.112, 4-(3-(2,4-Difluoro-3-hydroxy-5-(trifluoromethyl)phenyl)-1-methyl-1H-pyrazolo[4,3-c]pyridin-6-yl)-7-methyl-4,7-diazaspiro [2.5]octan-8-one], the figure is under 100 nM; as for `CCN1CCN(c2cc3c(cn2)c(-c2cc(C(F)(F)F)c(F)c(O)c2F)nn3C)C(=O)C1` [Compound 9.113, 1-(3-(2,4-Difluoro-3-hydroxy-5-(trifluoromethyl)phenyl)-1-methyl-1H-pyrazolo[4,3-c]pyridin-6-yl)-4-ethylpiperazin-2-one], 100 to 1000 nM.
On to `Cn1nc(-c2cc(C(F)(F)F)c(F)c(O)c2F)c2cnc(N3CC(=O)NCC34CC4)cc21` [Compound 9.114, 4-(3-(2,4-Difluoro-3-hydroxy-5-(trifluoromethyl)phenyl)-1-methyl-1H-pyrazolo[4,3-c]pyridin-6-yl)-4,7-diazaspiro[2.5]octan-6-one], for which the IC50 is under 100 nM.
In the case of `Cn1nc(-c2cc(C(F)(F)F)c(F)c(O)c2F)c2cnc(N3CC4(CC4)NCC3=O)cc21` [Compound 9.115, 7-(3-(2,4-Difluoro-3-hydroxy-5-(trifluoromethyl)phenyl)-1-methyl-1H-pyrazolo[4,3-c]pyridin-6-yl)-4,7-diazaspiro[2.5]octan-6-one] it was 100 to 1000 nM; in that of `CN(c1cc2c(cc1F)c(-c1cc(C(F)(F)F)c(F)c(O)c1F)nn2C)C1CCOCC1` [Compound 9.116, 2,6-Difluoro-3-(5-fluoro-1-methyl-6-(methyl(tetrahydro-2H-pyran-4-yl)amino)-1H-indazol-3-yl)-5-(trifluoromethyl)phenol], under 100 nM; in that of `Cn1nc(-c2cc(C(F)(F)F)c(F)c(O)c2F)c2cc(F)c(N3CCN(S(C)(=O)=O)CC34CC4)cc21` [Compound 9.117, 2,6-Difluoro-3-(5-fluoro-1-methyl-6-(7-(methylsulfonyl)-4,7-diazaspiro[2.5]octan-4-yl)-1H-indazol-3-yl)-5-(trifluoromethyl)phenol], under 100 nM.
Regarding `Cn1nc(-c2cc(C(F)(F)F)c(F)c(O)c2F)c2c(F)cc(N3CCOCC34CC4)cc21` [Compound 9.118, 2,6-Difluoro-3-(4-fluoro-1-methyl-6-(7-oxa-4-azaspiro[2.5]octan-4-yl)-1H-indazol-3-yl)-5-(trifluoromethyl)phenol], the IC50 was under 100 nM.
Regarding `Cn1nc(-c2cc(C(F)(F)F)c(F)c(O)c2F)c2ncc(N3CCOCC34CC4)cc21` [Compound 9.119, 2,6-Difluoro-3-(1-methyl-6-(7-oxa-4-azaspiro[2.5]octan-4-yl)-1H-pyrazolo[4,3-b]pyridin-3-yl)-5-(trifluoromethyl)phenol], the IC50 is under 100 nM.
Regarding `CN(c1cc2c(nn1)c(-c1cc(C(F)(F)F)c(F)c(O)c1F)nn2C)C1CCOCC1` [Compound 9.120, 2,6-Difluoro-3-(1-methyl-6-(methyl(tetrahydro-2H-pyran-4-yl)amino)-1H-pyrazolo[4,3-c]pyridazin-3-yl)-5-(trifluoromethyl)phenol], the 50% inhibitory concentration (IC50) lay within 100 to 1000 nM.
In the case of `Cn1nc(-c2cc(C(F)(F)F)c(F)c(O)c2F)c2cc(F)c(N3CCOCC34CC4)cc21` [Compound 9.121, 2,6-Difluoro-3-(5-fluoro-1-methyl-6-(7-oxa-4-azaspiro[2.5]octan-4-yl)-1H-indazol-3-yl)-5-(trifluoromethyl)phenol], the IC50 was under 100 nM.
In the case of `Cn1nc(-c2cc(C(F)(F)F)c(F)c(O)c2F)c2cnc(N3CCN(S(C)(=O)=O)CC34CC4)nc21` [Compound 9.122, 2,6-Difluoro-3-(1-methyl-6-(7-(methylsulfonyl)-4,7-diazaspiro[2.5]octan-4-yl)-1H-pyrazolo[3,4-d]pyrimidin-3-yl)-5-(trifluoromethyl)phenol] it was under 100 nM.
In the case of `Cn1nc(-c2cc(C(F)(F)F)c(F)c(O)c2F)c2cnc(N(Cc3ccccc3)C3CCOCC3)cc21` [Compound 9.123, 3-(6-(Benzyl(tetrahydro-2H-pyran-4-yl)amino)-1-methyl-1H-pyrazolo[4,3-c]pyridin-3-yl)-2,6-difluoro-5-(trifluoromethyl)phenol] it was under 100 nM; in that of `Cn1nc(-c2cc(C(F)(F)F)c(F)c(O)c2F)c2cnc(N3CCS(=O)(=O)CC34CCC4)cc21` [Compound 9.124, 5-(3-(2,4-Difluoro-3-hydroxy-5-(trifluoromethyl)phenyl)-1-methyl-1H-pyrazolo[4,3-c]pyridin-6-yl)-8-thia-5-azaspiro[3.5]nonane 8,8-dioxide], under 100 nM; in that of `Cn1nc(-c2cc(C(F)(F)F)c(F)c(O)c2F)c2cnc(N3CCS(=O)(=O)CC3(C)C)cc21` [Compound 9.125, 4-(3-(2,4-Difluoro-3-hydroxy-5-(trifluoromethyl)phenyl)-1-methyl-1H-pyrazolo[4,3-c]pyridin-6-yl)-3,3-dimethylthiomorpholine 1,1-dioxide], 100 to 1000 nM.
In the case of `Cn1nc(-c2cc(C(F)(F)F)c(F)c(O)c2F)c2cnc(N3CCS(=O)(=O)CC3C3CC3)cc21` (stereo not drawn) [Compound 9.126, 3-Cyclopropyl-4-(3-(2,4-difluoro-3-hydroxy-5-(trifluoromethyl)phenyl)-1-methyl-1H-pyrazolo[4,3-c]pyridin-6-yl)thiomorpholine 1,1-dioxide] it was under 100 nM; in that of `CN(c1cc(Cl)c2c(-c3cc(C(F)(F)F)c(F)c(O)c3F)nn(C)c2c1)C1CCOCC1` [Compound 9.127, 3-(4-Chloro-1-methyl-6-(methyl(tetrahydro-2H-pyran-4-yl)amino)-1H-indazol-3-yl)-2,6-difluoro-5-(trifluoromethyl)phenol], 100 to 1000 nM.
For `CN1CCN(c2cc3c(cn2)c(-c2cc(C(F)(F)F)c(F)c(O)c2F)nn3C)C(C2CCOCC2)C1` (stereo not drawn) [Compound 9.128, 2,6-Difluoro-3-(1-methyl-6-(4-methyl-2-(tetrahydro-2H-pyran-4-yl)piperazin-1-yl)-1H-pyrazolo[4,3-c]pyridin-3-yl)-5-(trifluoromethyl)phenol], the IC50 is under 100 nM.
